# From patent US12552772B2, “2-pyrazole anilines and related analogs for inhibiting YAP/TAZ-TEAD” (KATHOLIEKE UNIVERSITEIT LEUVEN, priority 2021, dated 2026)
# Test system: YAP/TAZ-TEAD transcription
# Experiment: Reporter gene assay for measuring the inhibition of YAP/TAZ-TEAD transcription (TEAD-responsive element luciferase reporter in Hek293T cells)
# Assay type: cell-based
# Settings: Homo sapiens, HEK-293T, 24 hours incubation
# Procedure: Hek293T cells are cultured in DMEM supplemented with 10% fetal bovine serum, Sodium pyruvate, Sodium bicarbonate, L-glutamine. The cells are harvested and transiently transfected with TEAD-responsive element luciferase reporter. Transfected cells are plated in 384-wells plate containing pre-diluted compounds. After 24 hours incubation at 37° C./5% CO2, assay plates were cooled down to RT and levelled to an equal volume per well, prior to the addition of 25 uL luciferase substrate SteadyLite (Perkin Elmer)/well. The plate was shaken for 10 min at 600 rpm, centrifuged for 1 min at 500 rpm and measured with an Envision reader (PerkinElmer). The amount of relative light units produced by the TEAD reporter is used to calculated percent of inhibition.
# The percent of reporter inhibition was calculated in the presence of a positive control inhibitor (100% inhibition) versus a condition with the presence of the vehicle basal activity of the reporter (0% inhibition). The ability of a test compound to inhibit this activity was determined as: Percentage inhibition=[1−((RLU determined in the presence of vehicle−RLU determined for sample with test compound present) divided by (RLU determined in the presence of vehicle−RLU determined for sample with positive control inhibitor))]*100
# The activities of the example compounds tested are depicted in the table below. The activity ranges A, B and C refer to EC50 values in the reporter gene assay as described as follows: “A”: EC50<1 μM; “B”: 1 μM s EC50≤20 μM and “C”: EC50>20 μM, NT=not tested.
row,Compound,EC50
1,"CNS(=O)(=O)CCN(C)c1ccc(-c2ccccc2)cc1-c1ccn(Cc2cccnc2)n1 [compound 067, N-methyl-2-(methyl(3-(1-(pyridin-3-ylmethyl)-1H-pyrazol-3-yl)-[1,1′-biphenyl]-4-yl)amino)ethane-1-sulfonamide]",1000 to 20000 nM
2,"O=S1(=O)CCC(Nc2ccc(-c3ccccc3)cc2-c2ccn(Cc3cccnc3)n2)CC1 [compound 068, 4-((3-(1-(pyridin-3-ylmethyl)-1H-pyrazol-3-yl)-[1,1′-biphenyl]-4-yl)amino)tetrahydro-2H-thiopyran-1,1-dioxide]",1000 to 20000 nM
3,"O=S1(=O)CCC(Nc2cc(-c3ccccc3)cc(-c3ccn(Cc4cccnc4)n3)c2)CC1 [compound 069, 4-((5-(1-(pyridin-3-ylmethyl)-1H-pyrazol-3-yl)-[1,1′-biphenyl]-3-yl)amino)tetrahydro-2H-thiopyran 1,1-dioxide]",1000 to 20000 nM
4,"c1ccc(-c2cc(NC3CCCOC3)cc(-c3ccn(Cc4cccnc4)n3)c2)cc1 (stereo not drawn) [compound 071, N-(5-(1-(pyridin-3-ylmethyl)-1H-pyrazol-3-yl)-[1,1′-biphenyl]-3-yl)tetrahydro-2H-pyran-3-amine]",1000 to 20000 nM
5,"O=C1CC(Nc2ccc(-c3ccccc3)cc2-c2ccn(Cc3cccnc3)n2)CCN1 (stereo not drawn) [compound 072, 4-((3-(1-(pyridin-3-ylmethyl)-1H-pyrazol-3-yl)-[1,1′-biphenyl]-4-yl)amino)piperidin-2-one]",1000 to 20000 nM
6,"O=C1CC(Nc2cc(-c3ccccc3)cc(-c3ccn(Cc4cccnc4)n3)c2)CCN1 (stereo not drawn) [compound 073, 4-((5-(1-(pyridin-3-ylmethyl)-1H-pyrazol-3-yl)-[1,1′-biphenyl]-3-yl)amino)piperidin-2-one]",1000 to 20000 nM
7,"CNC(=O)CNc1ccc(-c2ccccc2)cc1-c1ccn(Cc2cccnc2)n1 [compound 074, N-methyl-2-((3-(1-(pyridin-3-ylmethyl)-1H-pyrazol-3-yl)-[1,1′-biphenyl]-4-yl)amino)acetamide]",1000 to 20000 nM
8,"CNC(=O)CNc1cc(-c2ccccc2)cc(-c2ccn(Cc3cccnc3)n2)c1 [compound 076, N-methyl-2-((5-(1-(pyridin-3-ylmethyl)-1H-pyrazol-3-yl)-[1,1′-biphenyl]-3-yl)amino)acetamide]",1000 to 20000 nM
9,"O=C(O)CNc1cc(-c2ccccc2)cc(-c2ccn(Cc3cccnc3)n2)c1 [compound 078, (5-(1-(pyridin-3-ylmethyl)-1H-pyrazol-3-yl)-[1,1′-biphenyl]-3-yl)glycine]",> 20000 nM
10,"CNS(=O)(=O)CCC(=O)Nc1ccc(-c2ccccc2)cc1-c1ccn(Cc2cccnc2)n1 [compound 079, 3-(N-methylsulfamoyl)-N-(3-(1-(pyridin-3-ylmethyl)-1H-pyrazol-3-yl)-[1,1′-biphenyl]-4-yl)propanamide]",1000 to 20000 nM
11,"C=CC(=O)Nc1ccc(-c2ccccc2)cc1-c1ccn(Cc2cccnc2)n1 [compound 080, N-(3-(1-(pyridin-3-ylmethyl)-1H-pyrazol-3-yl)-[1,1′-biphenyl]-4-yl)acrylamide]",1000 to 20000 nM
12,"N#CCC(=O)Nc1ccc(-c2ccccc2)cc1-c1ccn(Cc2cccnc2)n1 [compound 081, 2-cyano-N-(3-(1-(pyridin-3-ylmethyl)-1H-pyrazol-3-yl)-[1,1′-biphenyl]-4-yl)acetamide]",1000 to 20000 nM
13,"CNS(=O)(=O)CC(=O)Nc1ccc(-c2ccccc2)cc1-c1ccn(Cc2cccnc2)n1 [compound 082, 2-(N-methylsulfamoyl)-N-(3-(1-(pyridin-3-ylmethyl)-1H-pyrazol-3-yl)-[1,1′-biphenyl]-4-yl)acetamide]",1000 to 20000 nM
14,"N#CCCNc1ccc(-c2ccccc2)cc1-c1ccn(Cc2cccnc2)n1 [compound 084, 3-((3-(1-(pyridin-3-ylmethyl)-1H-pyrazol-3-yl)-[1,1′-biphenyl]-4-yl)amino)propanenitrile]",1000 to 20000 nM
15,"CNS(=O)(=O)CCNc1ccc(-c2cccnc2)cc1-c1ccn(Cc2cccnc2)n1 [compound 094, N-methyl-2-((4-(pyridin-3-yl)-2-(1-(pyridin-3-ylmethyl)-1H-pyrazol-3-yl)phenyl)amino)ethane-1-sulfonamide]",1000 to 20000 nM
16,"CNS(=O)(=O)CCNc1ccc(-c2ccn(C)n2)cc1-c1ccn(Cc2cccnc2)n1 [compound 096, N-methyl-2-((4-(1-methyl-1H-pyrazol-3-yl)-2-(1-(pyridin-3-ylmethyl)-1H-pyrazol-3-yl)phenyl)amino)ethane-1-sulfonamide]",1000 to 20000 nM
17,"CNS(=O)(=O)CCNc1ccc(-c2ccc(S(F)(F)(F)(F)F)cc2)cc1-c1ccn(Cc2cccnc2)n1 [compound 100, 2-((4′-(2,2-difluoro-2-methyl-2l6-trifluoran-2-yl)-3-(1-(pyridin-3-ylmethyl)-1H-pyrazol-3-yl)-[1,1′-biphenyl]-4-yl)amino)-N-methylethane-1-sulfonamide]",< 1000 nM
18,"CNS(=O)(=O)CCNc1ccc(-c2cc(F)cc(F)c2)cc1-c1ccn(Cc2cccnc2)n1 [compound 101, 2-((3′,5′-difluoro-3-(1-(pyridin-3-ylmethyl)-1H-pyrazol-3-yl)-[1,1′-biphenyl]-4-yl)amino)-N-methylethane-1-sulfonamide]",< 1000 nM
19,"CNS(=O)(=O)CCNc1ccc(-c2ccc(C(F)(F)F)cc2)cc1-c1ccn(Cc2cccc(F)c2)n1 [compound 103, 2-((3-(1-(3-fluorobenzyl)-1H-pyrazol-3-yl)-4′-(trifluoromethyl)-[1,1′-biphenyl]-4-yl)amino)-N-methylethane-1-sulfonamide]",< 1000 nM
20,"CNS(=O)(=O)CCNc1ccc(-c2ccccc2)cc1-c1ccn(Cc2cccc(C#N)c2)n1 [compound 104, 2-((3-(1-(3-cyanobenzyl)-1H-pyrazol-3-yl)-[1,1′-biphenyl]-4-yl)amino)-N-methylethane-1-sulfonamide]",< 1000 nM
21,"CNS(=O)(=O)CCNc1ccc(-c2ccc(C(F)(F)F)cc2)cc1-c1ccn(CCOC)n1 [compound 105, 2-((3-(1-(2-methoxyethyl)-1H-pyrazol-3-yl)-4′-(trifluoromethyl)-[1,1′-biphenyl]-4-yl)amino)-N-methylethane-1-sulfonamide]",< 1000 nM

# Second part, the molecule after the results:
row,EC50,Compound
1,< 1000 nM,"CS(=N)(=O)CCNc1ccc(-c2ccccc2)cc1-c1ccn(Cc2cccnc2)n1 (stereo not drawn) [compound 066, imino(methyl)(2-((3-(1-(pyridin-3-ylmethyl)-1H-pyrazol-3-yl)-[1,1′-biphenyl]-4-yl)amino)ethyl)-λ^6-sulfanone]"
2,< 1000 nM,"c1ccc(-c2ccc(NC3CCCOC3)c(-c3ccn(Cc4cccnc4)n3)c2)cc1 (stereo not drawn) [compound 070, N-(3-(1-(pyridin-3-ylmethyl)-1H-pyrazol-3-yl)-[1,1′-biphenyl]-4-yl)tetrahydro-2H-pyran-3-amine]"
3,< 1000 nM,CCC(=O)NCCNc1ccc(-c2ccccc2)cc1-c1ccn(Cc2cccnc2)n1 [compound 077]
4,< 1000 nM,"N#CCNc1ccc(-c2ccccc2)cc1-c1ccn(Cc2cccnc2)n1 [compound 085, 2-((3-(1-(pyridin-3-ylmethyl)-1H-pyrazol-3-yl)-[1,1′-biphenyl]-4-yl)amino)acetonitrile]"
5,< 1000 nM,CNS(=O)(=O)CCNc1ccc(-c2cccc(C(F)(F)F)c2)cc1-c1ccn(Cc2cccnc2)n1 [compound 089]
6,< 1000 nM,"CNS(=O)(=O)CCNc1ccc(-c2cccc(OC)c2)cc1-c1ccn(Cc2cccnc2)n1 [compound 090, 2-((3′-methoxy-3-(1-(pyridin-3-ylmethyl)-1H-pyrazol-3-yl)-[1,1′-biphenyl]-4-yl)amino)-N-methylethane-1-sulfonamide]"
7,< 1000 nM,"CNS(=O)(=O)CCNc1ccc(-c2cccc(Cl)c2)cc1-c1ccn(Cc2cccnc2)n1 [compound 091, 2-((3′-chloro-3-(1-(pyridin-3-ylmethyl)-1H-pyrazol-3-yl)-[1,1′-biphenyl]-4-yl)amino)-N-methylethane-1-sulfonamide]"
8,< 1000 nM,"CNS(=O)(=O)CCNc1ccc(-c2cc(F)ccc2F)cc1-c1ccn(Cc2cccnc2)n1 [compound 092, 2-((2′,5′-difluoro-3-(1-(pyridin-3-ylmethyl)-1H-pyrazol-3-yl)-[1,1′-biphenyl]-4-yl)amino)-N-methylethane-1-sulfonamide]"
9,< 1000 nM,"CNS(=O)(=O)CCNc1ccc(C2CCCCC2)cc1-c1ccn(Cc2cccnc2)n1 [compound 095, 2-((4-cyclohexyl-2-(1-(pyridin-3-ylmethyl)-1H-pyrazol-3-yl)phenyl)amino)-N-methylethane-1-sulfonamide]"
10,< 1000 nM,"CNS(=O)(=O)CCNc1ccc(-c2ccc(C(F)F)cc2)cc1-c1ccn(Cc2cccnc2)n1 [compound 097, 2-((4′-(difluoromethyl)-3-(1-(pyridin-3-ylmethyl)-1H-pyrazol-3-yl)-[1,1′-biphenyl]-4-yl)amino)-N-methylethane-1-sulfonamide]"
11,< 1000 nM,"CNS(=O)(=O)CCNc1ccc(-c2ccc(OC(F)(F)F)cc2)cc1-c1ccn(Cc2cccnc2)n1 [compound 098, N-methyl-2-((3-(1-(pyridin-3-ylmethyl)-1H-pyrazol-3-yl)-4′-(trifluoromethoxy)-[1,1′-biphenyl]-4-yl)amino)ethane-1-sulfonamide]"
12,< 1000 nM,"CNS(=O)(=O)CCNc1ccc(-c2ccc(OC(F)F)cc2)cc1-c1ccn(Cc2cccnc2)n1 [compound 099, 2-((4′-(difluoromethoxy)-3-(1-(pyridin-3-ylmethyl)-1H-pyrazol-3-yl)-[1,1′-biphenyl]-4-yl)amino)-N-methylethane-1-sulfonamide]"
